Assay [1] deals with Platelet-activating factor acetylhydrolase (Mus musculus, UniProt Q60963). Description: Late stage assay provider results from the probe development effort to identify inhibitors of plasma platelet activating factor acetylhydrolase (pPAFAH): fluorescence-based dose response biochemical gel-based competitive Activity-Based Protein Profiling (ABPP) assay for HTS compounds. [Related pubchem assays (depositor defined):AID463082, AID463092, AID463230, AID588474]. It is filed as cell-free.
Sequence of Platelet-activating factor acetylhydrolase (Q60963 whole entry): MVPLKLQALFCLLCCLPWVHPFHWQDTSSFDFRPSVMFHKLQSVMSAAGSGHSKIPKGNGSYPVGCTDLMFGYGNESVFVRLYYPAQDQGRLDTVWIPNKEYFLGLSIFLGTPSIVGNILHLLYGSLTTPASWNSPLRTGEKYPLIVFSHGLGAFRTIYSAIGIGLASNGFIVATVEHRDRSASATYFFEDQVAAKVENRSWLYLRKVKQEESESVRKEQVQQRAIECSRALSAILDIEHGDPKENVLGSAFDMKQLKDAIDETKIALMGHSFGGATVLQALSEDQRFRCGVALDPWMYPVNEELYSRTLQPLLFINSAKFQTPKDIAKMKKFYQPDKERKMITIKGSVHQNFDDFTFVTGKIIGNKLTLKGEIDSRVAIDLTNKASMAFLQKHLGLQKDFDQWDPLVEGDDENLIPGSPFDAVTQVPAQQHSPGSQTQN

Assay [2] deals with 5-hydroxytryptamine receptor 1E (Homo sapiens, UniProt P28566). The assay is described as follows: Counterscreen assay for S1P3 antagonists: Dose response cell-based high throughput screening assay to identify antagonists of the 5-Hydroxytryptamine Receptor Subtype 1E (5HT1E). [Related pubchem assays: 1429, 485 ]. The assay is classed as functional. A general note: Counterscreens check selectivity or assay interference.
Sequence of 5-hydroxytryptamine receptor 1E (P28566 whole entry): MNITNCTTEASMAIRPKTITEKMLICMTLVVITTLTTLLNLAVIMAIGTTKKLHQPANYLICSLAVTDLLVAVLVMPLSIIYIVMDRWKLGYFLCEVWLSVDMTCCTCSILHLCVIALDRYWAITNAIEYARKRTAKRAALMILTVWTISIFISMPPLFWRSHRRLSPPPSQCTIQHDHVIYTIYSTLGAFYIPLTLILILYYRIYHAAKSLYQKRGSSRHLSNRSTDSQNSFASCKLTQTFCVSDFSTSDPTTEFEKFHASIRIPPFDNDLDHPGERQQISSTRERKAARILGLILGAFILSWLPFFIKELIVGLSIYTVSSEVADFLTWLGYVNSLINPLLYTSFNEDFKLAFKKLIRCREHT

Another assay has as its system CHO. Description: CHO cell viability loss, potency – luminescence, cytotoxicity control for TLR9-MyD88 binding inhibitor project, dose response (AID 588339).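 Further: CHO cells stably coexpressing TLR9 and MyD88 fusions from primary screen; compound exposure lasted 48 hours before viability readout.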 The assay is classed as functional, cell-based, hamster. Conditions: Cricetulus griseus.
Assay [3] has as its target G-protein coupled receptor 55 (Homo sapiens, UniProt Q9Y2T6). The assay is described as follows: selective activators of receptor GPR55 – imaging, U2OS cells, beta-arrestin-GFP redistribution, primary screen (AID 1961). It is filed as functional.
For assay [4], the target named is Sphingosine 1-phosphate receptor 3 (Homo sapiens, UniProt Q99500). Description: Dose response cell-based high throughput screening assay for antagonists of the Sphingosine 1-Phosphate Receptor 3 (S1P3). [Related pubchem assays: 1429, 485 ]. The assay is classed as functional.
Sequence of Sphingosine 1-phosphate receptor 3 (Q99500 whole entry): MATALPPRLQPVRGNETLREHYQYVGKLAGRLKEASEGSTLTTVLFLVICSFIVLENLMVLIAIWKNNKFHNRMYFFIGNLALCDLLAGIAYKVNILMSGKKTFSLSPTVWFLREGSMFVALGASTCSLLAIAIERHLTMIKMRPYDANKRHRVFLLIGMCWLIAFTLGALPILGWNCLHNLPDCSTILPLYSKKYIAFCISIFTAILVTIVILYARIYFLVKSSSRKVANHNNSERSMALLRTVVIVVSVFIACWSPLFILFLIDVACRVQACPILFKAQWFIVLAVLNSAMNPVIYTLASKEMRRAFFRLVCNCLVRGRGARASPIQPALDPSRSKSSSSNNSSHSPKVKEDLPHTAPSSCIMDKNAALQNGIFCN
Assay [5] deals with T1, Botulinum neurotoxin type A (Clostridium botulinum (strain Hall / ATCC 3502 / NCTC 13319 / Type A), UniProt P0DPI1). The assay is described as follows: High-throughput multiplex microsphere dose response for inhibitors of toxin protease, specifically Botulinum neurotoxin light chain A protease, compounds from Powder Set 01. The assay is classed as functional, Clostridium botulinum A str. ATCC 3502. The following applies: read-out: EC50_MICROM.
T1 sequence (P0DPI1 2-448 limits assumed): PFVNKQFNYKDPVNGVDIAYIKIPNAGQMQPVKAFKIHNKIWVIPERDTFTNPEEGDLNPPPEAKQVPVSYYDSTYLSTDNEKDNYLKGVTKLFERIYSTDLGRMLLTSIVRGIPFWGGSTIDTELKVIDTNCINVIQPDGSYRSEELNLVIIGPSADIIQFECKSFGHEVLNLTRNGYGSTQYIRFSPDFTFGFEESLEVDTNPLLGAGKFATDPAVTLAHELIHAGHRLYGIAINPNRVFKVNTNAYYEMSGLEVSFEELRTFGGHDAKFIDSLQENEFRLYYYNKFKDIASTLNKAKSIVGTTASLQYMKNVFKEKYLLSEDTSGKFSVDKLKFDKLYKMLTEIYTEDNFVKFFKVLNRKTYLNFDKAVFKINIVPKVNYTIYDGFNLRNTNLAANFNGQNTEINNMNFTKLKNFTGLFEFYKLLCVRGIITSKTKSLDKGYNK

The target of assay [6] is T2, Botulinum neurotoxin type F (Clostridium botulinum, UniProt P30996). Description: High-throughput multiplex microsphere dose response for inhibitors of toxin protease, specifically Botulinum neurotoxin light chain F protease, compounds from Cherry Pick 01. It is filed as functional. The following applies: read-out: EC50_MICROM.
T2 sequence (P30996 1-436 limits assumed): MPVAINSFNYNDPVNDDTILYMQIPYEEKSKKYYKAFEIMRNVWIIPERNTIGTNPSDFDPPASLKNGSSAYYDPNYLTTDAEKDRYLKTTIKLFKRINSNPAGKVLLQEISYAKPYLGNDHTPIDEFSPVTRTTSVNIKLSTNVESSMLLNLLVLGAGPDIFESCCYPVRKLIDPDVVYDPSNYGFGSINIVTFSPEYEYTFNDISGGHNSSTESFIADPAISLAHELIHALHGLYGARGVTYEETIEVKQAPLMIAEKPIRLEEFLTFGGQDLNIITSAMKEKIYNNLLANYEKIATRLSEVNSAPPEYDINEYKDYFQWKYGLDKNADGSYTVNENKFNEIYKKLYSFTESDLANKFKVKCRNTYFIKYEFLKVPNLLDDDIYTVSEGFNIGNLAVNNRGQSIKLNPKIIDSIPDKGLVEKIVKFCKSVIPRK
In assay [7] the target is T1, Botulinum neurotoxin type A. Description: Confirmatory FRET assay using full length substrates for Botulinum neurotoxin light chain A protease, with Powder Set01. It is filed as functional.
The target is the same in assay [8]. The assay is described as follows: High-throughput multiplex microsphere dose response for inhibitors of toxin protease, specifically Botulinum neurotoxin light chain A protease, compounds from Cherry Pick 01. It is filed as functional. Conditions: read-out: EC50_MICROM.
The target in a further assay is Beta Lactamase (Pseudomonas aeruginosa, UniProt Q932Y6). Description: BLA reporter interference, concentration series – BLA reporter cells, FRET fluorescence, artefact control for TLR9-MyD88 binding inhibitor project, dose response (AID 588341).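 Further: cell based assay in CHO-K1 cells stably expressing beta-lactamase.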 It is filed as cell-based.
Sequence of Beta Lactamase (Q932Y6 whole entry): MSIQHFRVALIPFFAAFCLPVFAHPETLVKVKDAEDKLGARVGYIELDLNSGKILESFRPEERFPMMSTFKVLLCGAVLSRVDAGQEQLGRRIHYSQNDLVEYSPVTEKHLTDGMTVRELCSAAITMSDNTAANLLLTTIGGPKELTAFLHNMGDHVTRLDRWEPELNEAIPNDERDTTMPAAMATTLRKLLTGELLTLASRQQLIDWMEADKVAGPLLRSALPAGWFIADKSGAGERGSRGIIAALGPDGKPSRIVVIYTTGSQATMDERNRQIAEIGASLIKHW
In assay [9] the target is T2, Botulinum neurotoxin type F. The assay is described as follows: High-throughput multiplex microsphere dose response for inhibitors of toxin protease, specifically Botulinum neurotoxin light chain F protease, compounds from Powder Set 01. The assay is classed as functional, Clostridium botulinum Bf. Conditions: read-out: EC50_MICROM.
Assay [10] addresses T3, Sentrin-specific protease 7 (Homo sapiens, UniProt Q9BQF6).
T3 sequence (Q9BQF6 whole entry): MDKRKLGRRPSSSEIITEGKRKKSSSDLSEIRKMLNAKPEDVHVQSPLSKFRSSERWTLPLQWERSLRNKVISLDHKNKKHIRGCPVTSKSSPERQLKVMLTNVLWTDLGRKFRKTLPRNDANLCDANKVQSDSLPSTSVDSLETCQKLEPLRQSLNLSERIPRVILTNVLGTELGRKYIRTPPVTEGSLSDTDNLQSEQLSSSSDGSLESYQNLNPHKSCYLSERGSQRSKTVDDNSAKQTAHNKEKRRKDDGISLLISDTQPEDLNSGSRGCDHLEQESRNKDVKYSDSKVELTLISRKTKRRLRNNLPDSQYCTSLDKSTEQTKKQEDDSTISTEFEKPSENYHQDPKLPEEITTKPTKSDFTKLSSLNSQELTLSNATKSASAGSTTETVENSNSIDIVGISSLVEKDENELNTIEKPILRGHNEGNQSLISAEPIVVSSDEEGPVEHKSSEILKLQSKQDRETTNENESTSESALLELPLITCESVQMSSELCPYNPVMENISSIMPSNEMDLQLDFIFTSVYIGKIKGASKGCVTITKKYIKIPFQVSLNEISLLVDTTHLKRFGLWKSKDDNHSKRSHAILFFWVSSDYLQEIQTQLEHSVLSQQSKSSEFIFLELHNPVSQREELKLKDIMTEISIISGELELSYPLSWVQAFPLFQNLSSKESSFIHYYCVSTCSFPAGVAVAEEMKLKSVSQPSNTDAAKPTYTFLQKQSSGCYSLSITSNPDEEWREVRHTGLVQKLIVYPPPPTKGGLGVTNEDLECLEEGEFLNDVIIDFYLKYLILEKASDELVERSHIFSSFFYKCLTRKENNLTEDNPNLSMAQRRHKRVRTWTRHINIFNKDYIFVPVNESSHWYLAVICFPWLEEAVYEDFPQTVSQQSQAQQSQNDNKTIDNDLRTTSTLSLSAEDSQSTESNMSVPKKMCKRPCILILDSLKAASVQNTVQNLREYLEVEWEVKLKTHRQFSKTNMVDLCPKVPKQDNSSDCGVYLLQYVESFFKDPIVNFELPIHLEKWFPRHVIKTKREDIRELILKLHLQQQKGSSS
The assay is classed as functional.

The target in assay [11] is T4, Sentrin-specific protease 6 (Homo sapiens, UniProt Q9GZR1).
T4 sequence (Q9GZR1 whole entry): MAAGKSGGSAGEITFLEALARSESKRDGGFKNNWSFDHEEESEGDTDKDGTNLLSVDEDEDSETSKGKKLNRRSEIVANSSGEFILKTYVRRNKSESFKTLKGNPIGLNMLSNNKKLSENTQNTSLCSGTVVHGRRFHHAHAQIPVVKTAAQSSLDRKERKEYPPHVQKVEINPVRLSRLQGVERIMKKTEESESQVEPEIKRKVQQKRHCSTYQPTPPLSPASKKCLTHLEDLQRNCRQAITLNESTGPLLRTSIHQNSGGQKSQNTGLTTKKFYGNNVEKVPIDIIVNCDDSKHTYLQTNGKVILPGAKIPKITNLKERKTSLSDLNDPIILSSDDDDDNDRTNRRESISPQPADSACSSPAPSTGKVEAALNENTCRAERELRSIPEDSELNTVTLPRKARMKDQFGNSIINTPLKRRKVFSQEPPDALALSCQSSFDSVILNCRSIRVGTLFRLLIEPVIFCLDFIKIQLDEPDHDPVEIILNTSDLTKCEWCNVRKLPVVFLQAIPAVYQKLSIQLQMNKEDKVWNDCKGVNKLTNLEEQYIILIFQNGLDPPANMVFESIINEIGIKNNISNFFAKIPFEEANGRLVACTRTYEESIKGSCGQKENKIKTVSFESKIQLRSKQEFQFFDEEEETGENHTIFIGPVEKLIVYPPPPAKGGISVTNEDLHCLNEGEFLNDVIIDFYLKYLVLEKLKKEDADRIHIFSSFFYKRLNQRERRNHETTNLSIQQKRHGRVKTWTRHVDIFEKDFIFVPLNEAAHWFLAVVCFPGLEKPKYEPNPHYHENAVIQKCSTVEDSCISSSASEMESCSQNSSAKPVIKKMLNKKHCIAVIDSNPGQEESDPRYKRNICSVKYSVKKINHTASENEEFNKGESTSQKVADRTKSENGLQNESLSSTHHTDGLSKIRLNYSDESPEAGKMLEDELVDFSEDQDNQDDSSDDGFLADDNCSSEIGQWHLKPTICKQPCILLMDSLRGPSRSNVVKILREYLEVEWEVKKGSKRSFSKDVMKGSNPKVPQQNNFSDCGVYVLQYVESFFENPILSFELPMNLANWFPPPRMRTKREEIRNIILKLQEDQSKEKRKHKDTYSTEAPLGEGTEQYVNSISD
It is filed as functional.

In assay [12] the target is T5, Sentrin-specific protease 8 (Homo sapiens, UniProt Q96LD8).
T5 sequence (Q96LD8 whole entry): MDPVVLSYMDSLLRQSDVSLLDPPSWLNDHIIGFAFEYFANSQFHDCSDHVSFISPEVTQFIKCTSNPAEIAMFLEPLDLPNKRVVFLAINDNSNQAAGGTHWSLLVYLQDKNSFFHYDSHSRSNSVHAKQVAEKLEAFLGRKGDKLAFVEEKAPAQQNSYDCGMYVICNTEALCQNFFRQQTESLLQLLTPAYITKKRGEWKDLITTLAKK
The assay is described as follows: inhibition of human SENP8 cleavage activity – biochemical, luminescence, SAR follow-up (AID 504501). The assay is classed as functional.

The target of assay [13] is T6, Caspase-3 (Homo sapiens, UniProt P42574).
T6 sequence (P42574 whole entry): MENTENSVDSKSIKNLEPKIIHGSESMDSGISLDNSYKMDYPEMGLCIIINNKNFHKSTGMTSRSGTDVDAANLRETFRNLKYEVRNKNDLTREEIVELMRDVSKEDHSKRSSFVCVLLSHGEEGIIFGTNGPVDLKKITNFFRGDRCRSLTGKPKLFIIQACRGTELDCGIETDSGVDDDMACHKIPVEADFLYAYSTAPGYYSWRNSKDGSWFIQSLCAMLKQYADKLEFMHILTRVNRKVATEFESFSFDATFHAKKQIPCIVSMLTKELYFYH
The assay is described as follows: SAR Analysis of small molecule inhibitors of Sentrin-specific proteases (SENPs) using a Caspase-3 Selectivity assay. [Related pubchem assays (depositor defined):AID2540, AID2599, AID434973, AID489001]. It is filed as functional.

Assay [14] concerns the target T3, Sentrin-specific protease 7. The assay is described as follows: inhibition of human SENP7 cleavage activity – biochemical, luminescence, SAR follow-up (AID 504497). The assay is classed as functional.
Assay [15] addresses T4, Sentrin-specific protease 6. Description: SAR Analysis of small molecule inhibitors of Sentrin-specific protease 6 (SENP6) using a Luminescent assay. [Related pubchem assays (depositor defined):AID2582, AID2599]. The assay is classed as functional.
In assay [16] the target is T5, Sentrin-specific protease 8. The assay is classed as functional.
For assay [17], the target named is T6, Caspase-3. It is filed as functional.
Assay [18] addresses T4, Sentrin-specific protease 6. Description: inhibition of human SENP6 catalytic domain – biochemical, luminescence, set 2, SAR follow-up (AID 588598). It is filed as functional.
The target in assay [19] is T3, Sentrin-specific protease 7. The assay is described as follows: inhibition of human SENP7 cleavage activity – biochemical, luminescence, set 2, SAR follow-up (AID 588600). The assay is classed as functional.
Assay [20] addresses T5, Sentrin-specific protease 8. Description: inhibition of sentrin protease 8 – biochemical, luminescence, set 2, SAR follow-up (AID 588601). The assay is classed as functional.
Assay [21] addresses T6, Caspase-3. The assay is described as follows: inhibition of recombinant caspase-3 activity – biochemical, luminescence, set 2, selectivity assay for SENP protease inhibitor project, SAR follow-up (AID 588599). The assay is classed as functional.
Assay [22] can be described thus: microbe, parasite or virus in culture. The assay is classed as functional. The following applies: Mycobacterium tuberculosis.
Assay [23] in a line: A Cell Based Secondary Assay to Explore Cytotoxicity in THP-1 Cells of Compounds that Modulate Mycobacterium tuberculosis in Media Containing Glycerol versus Media without Glycerol (2). The assay is classed as functional.
Assay [24] in a line: A Cell Based Secondary Assay to Explore Cytotoxicity in HepG2 Cells of Compounds that Modulate Mycobacterium tuberculosis in Media Containing Glycerol versus Media without Glycerol (2). The assay is classed as functional.
Assay [25] in a line: Vero cell cytotoxicity, cytotoxicity control for M. tuberculosis inhibitor project, purified and synthesized samples, set 3 (AID 504684). The assay is classed as functional. The following applies: […].

This note sets out measurements from ChEMBL document CHEMBL1201862, “PubChem BioAssay data set” (2004).

The source made the active and inactive calls. A value given as a limit tells only on which side of the number the result lay.

For orientation: IC50 means the concentration at which inhibition is half-maximal.

Sequence of G-protein coupled receptor 55 (Q9Y2T6 whole entry): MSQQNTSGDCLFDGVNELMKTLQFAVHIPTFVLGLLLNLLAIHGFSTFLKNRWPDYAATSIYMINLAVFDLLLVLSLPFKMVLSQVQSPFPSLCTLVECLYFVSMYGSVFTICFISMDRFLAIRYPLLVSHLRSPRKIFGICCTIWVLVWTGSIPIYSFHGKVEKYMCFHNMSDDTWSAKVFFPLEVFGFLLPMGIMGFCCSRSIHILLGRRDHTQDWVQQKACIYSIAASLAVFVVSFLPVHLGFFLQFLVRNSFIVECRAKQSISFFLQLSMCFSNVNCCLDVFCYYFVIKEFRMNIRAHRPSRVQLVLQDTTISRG

On to `CN(C)C(=O)Oc1noc2cc(Cl)ccc12`, for which, in [1], the IC50 was 0.234 µM (active).
With `O=[N+]([O-])c1ccc(C2=NN(c3ccccc3)C(c3ccco3)C2)cc1` (configuration not stated), the IC50 in assay [2] is 2.49 µM (active); in the assay on CHO it was > 49.7 µM (inactive); in assay [4], 3.78 µM (active); at Beta Lactamase, 2.64 µM (active). Besides, the EC50 in assay [3] was < 0.5 µM (active); in [5], 0.4 µM (active); in assay [6] it was 1.5 µM (active); in assay [7], 3.1 µM (active); in assay [8] it was 2.6 µM (active); in assay [9] it was 0.5 µM (active).
For `Cc1cc(O)c(-c2cc(C(=O)Nc3cccnc3)[nH]n2)cc1C`, the IC50 in [10] was 3.61 µM (active); in [11], > 100 µM (inactive); in [12], > 99 µM (inactive); at Caspase-3 [13] it was 8.64 µM (active); in assay [14], 2.97 µM (active); in assay [15], > 99 µM (inactive). The values for the IC50 (in assay [16]; at Caspase-3 [17]) were > 100 µM (inactive) and 32.2 µM (active), respectively.
Turning to `O=S(=O)(c1ccc2[nH]cc(/C=N\NC(=S)Nc3cccc(Cl)c3)c2c1)N1CCCCC1`, the IC50 (in assay [18]; in [19]; in [20]; at Caspase-3 [21]) was > 99 µM (inactive) throughout.
Regarding `Oc1ccccc1/C=N/Nc1ccnc(SCc2ccccc2)n1`, the CC50 in assay [22] is > 40 µM (active); in assay [23], 57.4 µM (active); in [24] it was 18.5 µM (active); in assay [25], 26.7 µM (active).
